According to patent US9145392B2, “Imidazole amines as modulators of kinase activity” (Merck Patent GmbH, priority 2011, dated 2015):

Experiments:
[1] = biological target: P70S6K (T412E mutant) (Homo sapiens (Human), UniProt P23443, T412E); assay: P70S6K enzyme assay; format: biochemical; details: read-out: IC50 p70S6K
Summary of the method: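 Read-out is the substrate/phosphopeptide ratio from mobility-shift electrophoresis on a LabChip 3000.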

[2] = biological target: His-AKT (Full Length) (Homo sapiens (Human), UniProt P31749); assay: AKT enzyme assay; format: biochemical; details: read-out: IC50 AKT
His-AKT (Full Length), sequence (P31749 whole entry): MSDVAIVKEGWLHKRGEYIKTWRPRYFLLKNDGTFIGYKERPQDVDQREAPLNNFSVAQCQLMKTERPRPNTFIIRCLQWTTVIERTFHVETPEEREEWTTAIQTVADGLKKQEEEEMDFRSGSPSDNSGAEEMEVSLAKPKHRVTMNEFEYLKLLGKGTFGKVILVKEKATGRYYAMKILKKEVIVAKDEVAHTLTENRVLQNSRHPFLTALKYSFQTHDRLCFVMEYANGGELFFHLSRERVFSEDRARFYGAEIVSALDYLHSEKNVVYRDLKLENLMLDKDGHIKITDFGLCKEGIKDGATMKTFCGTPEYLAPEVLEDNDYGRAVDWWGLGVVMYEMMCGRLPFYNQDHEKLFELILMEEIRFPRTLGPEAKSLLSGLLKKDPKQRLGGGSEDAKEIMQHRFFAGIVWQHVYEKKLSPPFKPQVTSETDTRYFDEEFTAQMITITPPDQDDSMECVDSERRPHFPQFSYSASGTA

P70S6K (T412E mutant), sequence (P23443 whole entry T412E): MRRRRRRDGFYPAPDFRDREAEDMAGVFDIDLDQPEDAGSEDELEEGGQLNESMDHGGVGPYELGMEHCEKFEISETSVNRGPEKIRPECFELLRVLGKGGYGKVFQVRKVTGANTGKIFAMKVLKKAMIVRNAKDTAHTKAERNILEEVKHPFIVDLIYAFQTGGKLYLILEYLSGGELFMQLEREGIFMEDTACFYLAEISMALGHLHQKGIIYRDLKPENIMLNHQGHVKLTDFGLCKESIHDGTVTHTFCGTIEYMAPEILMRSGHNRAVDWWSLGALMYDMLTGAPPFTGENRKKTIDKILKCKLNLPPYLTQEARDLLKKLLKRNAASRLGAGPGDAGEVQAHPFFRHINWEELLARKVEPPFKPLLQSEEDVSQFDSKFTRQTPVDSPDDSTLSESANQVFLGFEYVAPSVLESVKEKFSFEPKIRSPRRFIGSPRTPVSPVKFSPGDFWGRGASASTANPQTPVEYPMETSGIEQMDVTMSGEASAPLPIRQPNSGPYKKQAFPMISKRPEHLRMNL

SMILES	IC50 [1]	IC50 [2]
Cc1cc(-c2cn(CC3CNC3)c(C3CCN(c4ncnc(N)c4C#N)CC3)n2)ccc1F [Compound 191, 4-amino-6-(4-(1-(azetidin-3-ylmethyl)-4-(4-fluoro-3-methylphenyl)-1H-imidazol-2-yl)piperidin-1-yl)pyrimidine-5-carbonitrile]	7.4 nM	15 nM
CNc1ncnc(N2CCC(c3nc(-c4ccnc(C(F)(F)F)c4)cn3CCN3CCC3)CC2)c1Cl [Compound 192, 6-(4-(1-(2-(azetidin-1-yl)ethyl)-4-(2-(trifluoromethyl)pyridin-4-yl)-1H-imidazol-2-yl)piperidin-1-yl)-5-chloro-N-methylpyrimidin-4-amine]	2700 nM	7200 nM
CNc1ncnc(N2CCC(c3nc(-c4ccc(F)c(C)c4)cn3CC3CNC3)CC2)c1Cl [Compound 193, (6-{4-[1-Azetidin-3-ylmethyl-4-(4-fluoro-3-methyl-phenyl)-1H-imidazol-2-yl]-piperidin-1-yl}-5-chloro-pyrimidin-4-yl)-methyl-amine]	1300 nM	5700 nM
CCc1c(N)ncnc1N1CCC(c2nc(-c3ccc(F)cc3)cn2CCN2CCOCC2)CC1 [Compound 195, 5-Ethyl-6-{4-[4-(4-fluoro-phenyl)-1-(2-morpholin-4-yl-ethyl)-1H-imidazol-2-yl]-piperidin-1-yl}-pyrimidin-4-ylamine]	16 nM	> 1000 nM
CCc1c(N)ncnc1N1CCC(c2nc(-c3ccc(F)c(F)c3)cn2CCN2CC3(COC3)C2)CC1 [Compound 198, 6-(4-{4-(3,4-Difluoro-phenyl)-1-[2-(2-oxa-6-aza-spiro[3.3]hept-6-yl)-ethyl]-1H-imidazol-2-yl}-piperidin-1-yl)-5-ethyl-pyrimidin-4-ylamine]	11 nM	255 nM
CCc1c(N)ncnc1N1CCC(c2nc(-c3ccc(F)c(F)c3)cn2CCN2CC(F)C2)CC1 [Compound 199, 6-(4-{4-(3,4-Difluoro-phenyl)-1-[2-(3-fluoro-azetidin-1-yl)-ethyl]-1H-imidazol-2-yl}-piperidin-1-yl)-5-ethyl-pyrimidin-4-ylamine]	12 nM	385 nM
CCc1c(N)ncnc1N1CCC(c2nc(-c3ccc(F)cc3)cn2CCN2CC(F)C2)CC1 [Compound 200, 5-Ethyl-6-{4-[1-[2-(3-fluoro-azetidin-1-yl)-ethyl]-4-(4-fluoro-phenyl)-1H-imidazol-2-yl]-piperidin-1-yl}-pyrimidin-4-ylamine]	21 nM	640 nM
CCc1c(N)ncnc1N1CCC(c2nc(-c3ccc(F)cc3)cn2CCN2CCC3(COC3)C2)CC1 [Compound 201, 5-Ethyl-6-(4-{4-(4-fluoro-phenyl)-1-[2-(2-oxa-6-aza-spiro[3.4]oct-6-yl)-ethyl]-1H-imidazol-2-yl}-piperidin-1-yl)-pyrimidin-4-ylamine]	16 nM	> 1000 nM
CCc1c(N)ncnc1N1CCC(c2nc(-c3ccc(F)c(F)c3)cn2CCN2CCC3(COC3)C2)CC1 [Compound 202, 6-(4-{4-(3,4-Difluoro-phenyl)-1-[2-(2-oxa-6-aza-spiro[3.4]oct-6-yl)-ethyl]-1H-imidazol-2-yl}-piperidin-1-yl)-5-ethyl-pyrimidin-4-ylamine]	9 nM	89 nM
CCc1c(N)ncnc1N1CCC(c2nc(-c3ccc(F)c(F)c3)cn2CCN2CCC23COC3)CC1 [Compound 203, 6-(4-{4-(3,4-Difluoro-phenyl)-1-[2-(6-oxa-1-aza-spiro[3.3]hept-1-yl)-ethyl]-1H-imidazol-2-yl}-piperidin-1-yl)-5-ethyl-pyrimidin-4-ylamine]	30 nM	2500 nM
CCc1c(N)ncnc1N1CCC(c2nc(-c3ccc(F)cc3)cn2CCN2CCC23COC3)CC1 [Compound 204, 5-Ethyl-6-(4-{4-(4-fluoro-phenyl)-1-[2-(6-oxa-1-aza-spiro[3.3]hept-1-yl)-ethyl]-1H-imidazol-2-yl}-piperidin-1-yl)-pyrimidin-4-ylamine]	37 nM	3600 nM
N#Cc1c(N)ncnc1N1CCC(c2nc(-c3ccc4[nH]ncc4c3)cn2CCN2CCC2)CC1 [Compound 207, 4-Amino-6-{4-[1-(2-azetidin-1-yl-ethyl)-4-(1H-indazol-5-yl)-1H-imidazol-2-yl]-piperidin-1-yl}-pyrimidine-5-carbonitrile]	22 nM	105 nM
Nc1ncnc(N2CCC(c3nc(-c4ccc(F)c(C(F)(F)F)c4)cn3CCN3CCCC3)CC2)c1F [Compound 211]	23 nM	23 nM
C=C(C)c1c(N)ncnc1N1CCC(c2nc(-c3ccc(F)c(C(F)(F)F)c3)cn2CCN2CCCC2)CC1 [Compound 213]	7.9 nM	20 nM
Nc1cc(N2CCC(c3nc(-c4ccc(F)c(C(F)(F)F)c4)cn3CCN3CCCC3)CC2)ncn1 [Compound 214]	50 nM	180 nM

The next compounds have a lower IC50 [1] than those just listed; values first:

IC50 [1]	IC50 [2]	SMILES
6.7 nM	16 nM	C=C(C)c1c(N)ncnc1N1CCC(c2nc(-c3ccc(F)c(C(F)(F)F)c3)cn2CCN2CCCCC2)CC1 [Compound 212]
6.3 nM	130 nM	CCc1c(N)ncnc1N1CCC(c2nc(-c3ccc(F)cc3)cn2CCN2CC3(COC3)C2)CC1 [Compound 197, 5-Ethyl-6-(4-{4-(4-fluoro-phenyl)-1-[2-(2-oxa-6-aza-spiro[3.3]hept-6-yl)-ethyl]-1H-imidazol-2-yl}-piperidin-1-yl)-pyrimidin-4-ylamine]
6.1 nM	10 nM	Cc1c(N)ncnc1N1CCC(c2nc(-c3ccc(F)c(C(F)(F)F)c3)cn2CCN2CCCC2)CC1 [Compound 215]
5.5 nM	370 nM	CCc1c(N)ncnc1N1CCC(c2nc(-c3ccc(F)c(F)c3)cn2CCN2CCOCC2)CC1 [Compound 196, 6-{4-[4-(3,4-Difluoro-phenyl)-1-(2-morpholin-4-yl-ethyl)-1H-imidazol-2-yl]-piperidin-1-yl}-5-ethyl-pyrimidin-4-ylamine]
3.8 nM	9 nM	Nc1ncnc(N2CCC(c3nc(-c4ccc(F)c(C(F)(F)F)c4)cn3CCN3CCCCC3)CC2)c1Cl [Compound 216]
3.7 nM	3 nM	Nc1ncnc(N2CCC(c3nc(-c4ccc(O)c(C(F)(F)F)c4)cn3CCN3CCCC3)CC2)c1Cl [Compound 210]
3.4 nM	6.4 nM	Cc1cc(-c2cn(CC3CNC3)c(C3CCN(c4ncnc(N)c4OC(C)C)CC3)n2)ccc1F [Compound 187, 6-(4-(1-(azetidin-3-ylmethyl)-4-(4-fluoro-3-methylphenyl)-1H-imidazol-2-yl)piperidin-1-yl)-5-isopropoxypyrimidin-4-amine]
3.4 nM	16 nM	Cc1cc(-c2cn(CC3CNC3)c(C3CCC(c4ncnc(N)c4C(C)C)CC3)n2)ccc1F (centres unmarked) [Compound 194, 6-(4-(1-(azetidin-3-ylmethyl)-4-(4-fluoro-3-methylphenyl)-1H-imidazol-2-yl)cyclohexyl)-5-isopropylpyrimidin-4-amine]
3.2 nM	7.6 nM	CCc1c(N)ncnc1N1CCC(c2nc(-c3ccc(F)c(C(F)(F)F)c3)cn2CCN2CCCC2)CC1 [Compound 208]
3.1 nM	2.2 nM	Nc1ncnc(N2CCC(c3nc(-c4ccc(F)c(C(F)(F)F)c4)cn3CCN3CCCC3)CC2)c1Cl [Compound 209]
2.4 nM	13 nM	N#Cc1c(N)ncnc1N1CCC(c2nc(-c3ccnc(F)c3)cn2CCN2CCC2)CC1 [Compound 206, 4-Amino-6-{4-[1-(2-azetidin-1-yl-ethyl)-4-(2-fluoro-pyridin-4-yl)-1H-imidazol-2-yl]-piperidin-1-yl}-pyrimidine-5-carbonitrile]
2.2 nM	6.6 nM	CCOc1c(N)ncnc1N1CCC(c2nc(-c3ccc(F)c(C)c3)cn2CC2CNC2)CC1 [Compound 185, 6-(4-(1-(azetidin-3-ylmethyl)-4-(4-fluoro-3-methylphenyl)-1H-imidazol-2-yl)piperidin-1-yl)-5-ethoxypyrimidin-4-amine]
2.1 nM	2.3 nM	CCc1c(N)ncnc1N1CCC(c2nc(-c3ccc(F)c(C)c3)cn2CC2CNC2)CC1 [Compound 188, 6-(4-(1-(azetidin-3-ylmethyl)-4-(4-fluoro-3-methylphenyl)-1H-imidazol-2-yl)piperidin-1-yl)-5-ethylpyrimidin-4-amine]
2 nM	7.1 nM	Cc1cc(-c2cn(CC3CNC3)c(C3CCN(c4ncnc(N)c4OCC(F)(F)F)CC3)n2)ccc1F [Compound 186, 6-(4-(1-(azetidin-3-ylmethyl)-4-(4-fluoro-3-methylphenyl)-1H-imidazol-2-yl)piperidin-1-yl)-5-(2,2,2-trifluoroethoxy)pyrimidin-4-amine]
1.5 nM	2.3 nM	Nc1ncnc(N2CCC(c3nc(-c4ccc(F)c(C(F)(F)F)c4)cn3CCN3CCC3)CC2)c1Br [Compound 217]
1.1 nM	4.5 nM	Cc1cc(-c2cn(CC3CNC3)c(C3CCN(c4ncnc(N)c4C(C)C)CC3)n2)ccc1F [Compound 189, 6-(4-(1-(azetidin-3-ylmethyl)-4-(4-fluoro-3-methylphenyl)-1H-imidazol-2-yl)piperidin-1-yl)-5-isopropylpyrimidin-4-amine]
0.8 nM	1.3 nM	N#Cc1c(N)ncnc1N1CCC(c2nc(-c3cnc(F)c(Cl)c3)cn2CCN2CCC2)CC1 [Compound 205, 4-Amino-6-{4-[1-(2-azetidin-1-yl-ethyl)-4-(5-chloro-6-fluoro-pyridin-3-yl)-1H-imidazol-2-yl]-piperidin-1-yl}-pyrimidine-5-carbonitrile]
0.6 nM	1 nM	Nc1ncnc(N2CCC(c3nc(-c4ccc(F)c(C(F)(F)F)c4)cn3CCN3CCC3)CC2)c1Cl [Compound 218]
0.26 nM	2.3 nM	COc1c(N)ncnc1N1CCC(c2nc(-c3ccc(F)c(C)c3)cn2CC2CNC2)CC1 [Compound 184, 6-(4-(1-(azetidin-3-ylmethyl)-4-(4-fluoro-3-methylphenyl)-1H-imidazol-2-yl)piperidin-1-yl)-5-methoxypyrimidin-4-amine]
